Test results from patent US9920049B2 (priority 2014, dated 2018).

tested on: HBsAg; assay: HBsAg assay (CLIA of secreted HBsAg in HepG2.2.15 culture supernatant); assay type: cell-based, HBV; conditions: Hepatitis B virus
Procedure: HepG2.2.15 cells (Acs et al. Proc Natl Acad Sci USA, 84, (1987), 4641-4), a constitutively HBV-expressing cell line were cultured in DMEM+Glutamax-I medium (Invitrogen, Carlsbad, Calif., USA), supplemented with 10% fetal bovine serum (Invitrogen) and G418 (Invitrogen) at a final concentration of 200 mg/L and maintained in 5% CO2 at 37° C.
HepG2.2.15 cells were seeded in duplicate into white, 96-well plates at 1.5×10^4 cells/well. The cells were treated with a three-fold serial dilution series of the compounds in DMSO. The final DMSO concentration in all wells was 1% and DMSO was used as no drug control.
The HBsAg chemiluminescence immunoassay (CLIA) kit (Autobio Diagnostics Co., Zhengzhou, China, Catalog number: CL0310-2) was used to measure the levels of secreted HBV antigens semi-quantitatively. For the detection 50 μL/well culture supernatant was used and HBsAg was quantified using HBsAg chemiluminescence immunoassay (CLIA) kit (Autobio Diagnostics Co., Zhengzhou, China, Catalog number: CL0310-2), 50 μl of the supernatant was transferred to the CLIA assay plate and 50 μL of enzyme conjugate reagent was added into each well. The plates were sealed and gently agitated for 1 hour at room temperature. The supernatant-enzyme-mixture was discarded and wells were washed 6 times with 300 μL of PBS. The residual liquid was removed by plating the CLIA plate right side down on absorbent tissue paper. 25 μL of substrates A and B were added to each well. Luminance was measured using a luminometer (Mithras LB 940 Multimode Microplate Reader) after 10 minutes incubation. Dose-response curves were generated and the IC50 value was extrapolated by using the E-WorkBook Suite (ID Business Solutions Ltd., Guildford, UK).
The compounds of the present invention were tested for their capacity to inhibit HBsAg as described herein.

Q: Which IC50 does the source give for `CCC1Cc2cc(OCc3ccccc3)c(OC)cc2-c2cc(=O)c(C(=O)NCc3ccccc3)cn21` (stereo not drawn) [Example 1, N-benzyl-9-benzyloxy-6-ethyl-10-methoxy-2-oxo-6,7-dihydrobenzo[a]quinolizine-3-carboxamide] here?
A: 26.2 µM

Q: How did the IC50 turn out when `COCCCOc1cc2c(cc1OC)-c1cc(=O)c(C(=O)Nc3nnn[nH]3)cn1C(C(C)C)C2` (stereo not drawn) [Example 36, 6-isopropyl-10-methoxy-9-(3-methoxypropoxy)-2-oxo-N-(1H-tetrazol-5-yl)-6,7-dihydrobenzo[a]quinolizine-3-carboxamide] was run?
A: 5.5 µM

Q: Which IC50 does the source give for `CCC1Cc2cc(OCCCOC)c(OC)cc2-c2cc(=O)c(CN(C)C)cn21` (stereo not drawn) [Example 28, 3-[(dimethylamino)methyl]-6-ethyl-10-methoxy-9-(3-methoxypropoxy)-6,7-dihydrobenzo[a]quinolizin-2-one] here?
A: 3.7 µM

Q: How did the IC50 turn out when `CCC1Cc2cc(OCCCOC)c(OC)cc2-c2cc(=O)c(CN3CCCCC3)cn21` (stereo not drawn) [Example 24, 6-ethyl-10-methoxy-9-(3-methoxypropoxy)-3-(1-piperidylmethyl)-6,7-dihydrobenzo[a]quinolizin-2-one] was run?
A: 12.6 µM

Q: With `CCC1Cc2cc(OCCCOC)c(OC)cc2-c2cc(=O)c(CN3CCOCC3C(=O)O)cn21` (stereo not drawn) [Example 21, 4-[[6-ethyl-10-methoxy-9-(3-methoxypropoxy)-2-oxo-6,7-dihydrobenzo[a]quinolizin-3-yl]methyl]morpholine-3-carboxylic Acid] as the compound, how does the IC50 read?
A: 19.4 µM

Q: With `CCC1Cc2cc(OCCCOC)c(OC)cc2-c2cc(=O)c(CN3CCCCC3C(=O)O)cn21` (stereo not drawn) [Example 22, 1-[[6-ethyl-10-methoxy-9-(3-methoxypropoxy)-2-oxo-6,7-dihydrobenzo[a]quinolizin-3-yl]methyl]piperidine-2-carboxylic Acid] as the compound, how does the IC50 read?
A: 43.2 µM

Q: For `CCC1Cc2cc(OCCCOC)c(OC)cc2-c2cc(=O)c(C(=O)N3CCOC(C(=O)O)C3)cn21` (stereo not drawn) [Example 13, 4-[6-ethyl-10-methoxy-9-(3-methoxypropoxy)-2-oxo-6,7-dihydrobenzo[a]quinolizine-3-carbonyl]morpholine-2-carboxylic Acid], which IC50 is on record?
A: 36.6 µM

Q: With `CCC(C)NC(=O)c1cn2c(cc1=O)-c1cc(OC)c(OCc3ccccc3)cc1CC2CC` (stereo not drawn) [Example 9, 9-benzyloxy-6-ethyl-10-methoxy-2-oxo-N-sec-butyl-6,7-dihydrobenzo[a]quinolizine-3-carboxamide] as the compound, how does the IC50 read?
A: 5.4 µM

Q: Which IC50 does the source give for `COCCCOc1cc2c(cc1OC)-c1cc(=O)c(C(=O)Nc3nnn[nH]3)cn1C(C1CCC1)C2` (stereo not drawn) [Example 33, 6-cyclobutyl-10-methoxy-9-(3-methoxypropoxy)-2-oxo-N-(1H-tetrazol-5-yl)-6,7-dihydrobenzo[a]quinolizine-3-carboxamide] here?
A: 1 µM
